Assay results as given in BindingDB's records for PubMed 35814933 (Nankai University, 2022).

What was measured:
[1] = biological target: Cyclin-dependent kinase 5 (Homo sapiens, UniProt Q00535); test: Inhibition of CDK5 (unknown origin)
[2] = biological target: Cyclin-dependent kinase 7 (Homo sapiens, UniProt P50613); test: Inhibition of CDK7 (unknown origin)
Chain of Cyclin-dependent kinase 7 (P50613 whole entry): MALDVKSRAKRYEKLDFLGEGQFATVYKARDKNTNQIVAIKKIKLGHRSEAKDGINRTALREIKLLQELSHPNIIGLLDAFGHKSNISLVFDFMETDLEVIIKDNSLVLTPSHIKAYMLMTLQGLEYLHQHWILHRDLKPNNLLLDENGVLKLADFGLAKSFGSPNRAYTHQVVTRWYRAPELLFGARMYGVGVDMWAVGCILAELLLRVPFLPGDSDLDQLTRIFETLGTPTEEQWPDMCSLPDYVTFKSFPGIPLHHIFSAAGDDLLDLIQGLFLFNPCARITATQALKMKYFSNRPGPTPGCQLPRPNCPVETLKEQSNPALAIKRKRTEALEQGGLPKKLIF

Chain of Cyclin-dependent kinase 5 (Q00535 whole entry): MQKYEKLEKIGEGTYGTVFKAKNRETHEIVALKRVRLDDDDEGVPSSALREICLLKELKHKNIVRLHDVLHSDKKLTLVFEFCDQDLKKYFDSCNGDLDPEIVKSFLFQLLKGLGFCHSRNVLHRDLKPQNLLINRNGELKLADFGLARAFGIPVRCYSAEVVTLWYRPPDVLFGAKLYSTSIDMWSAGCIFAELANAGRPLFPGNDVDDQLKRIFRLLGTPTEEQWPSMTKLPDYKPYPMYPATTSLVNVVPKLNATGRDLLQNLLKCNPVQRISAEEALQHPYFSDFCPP

Q: How did the IC50 [1] turn out when `CC[C@H](Nc1nc(NCc2cnc(C)cc2C)c2ncn(C(C)C)c2n1)[C@@H](C)O` [US8592581, 1] was run?
A: 21 nM

Q: And the IC50 [2]?
A: 193 nM
